# From patent US20070161550A1, “Antiviral compositions which inhibit paramyxovirus infection” (priority 2003, published 2007)
# Legend:
# RSV A2 [1] = test: Inhibition of virus infectivity in vivo, lung virus titers in BALB/c mice; details: for inhibition of RSV infection in vivo (in words): BALB/c mouse model; for reduced infectivity, fold: co-administration with RSV (Table 16)
# Experimental: Inhibition of virus infectivity in vivo. […] All administrations were intranasal (0.05 ml) and performed under injected anesthesia (60 mg ketamine/kg and 2.5 mg xylazine/kg (The Butler Co.; Dublin Ohio)). Four days later the lungs were removed, homogenized, clarified by low speed centrifugation, snap frozen, and stored at −70° C. until plaque assays were performed using HEp-2 cell monolayers (Hancock et al. 1996). All animals were housed in a facility accredited by the American Association for Accreditation of Laboratory Animal Care.
# (§1) Plaque assay. Virus plaques were visualized as previously described (Hancock et al. 1996) using anti-F protein (L4) mAb (Paradiso et al., 1991; Walsh and Hruska, 1983). Thereafter, cells were rinsed with blotto blocking agent (PBS, 5% powdered milk) and incubated with horseradish peroxidase-conjugated goat anti-mouse IgG (Kirkegaard and Perry Laboratories, Inc.; Gaithersburg, Md.). Bound antibody was detected using 0.05% 4-chloro-1-naphtol containing 0.1% H2O2 in PBS. After enumeration of plaques, the mean percent infectivity (±1 standard deviation of triplicate wells) was calculated relative to monolayers exposed to virus in culture medium alone without chemokine or anti-chemokine receptor antibody.
# RSV A2 [2] = test: Inhibition of RSV infectivity in vitro, plaque assay on HEp-2 cell monolayers; format: cell-based, respiratory syncytial virus (RSV); details: for effect on RSV infectivity (in words): prior exposure (1 hour) of HEp-2 cells to recombinant chemokine, up to 10 μg/ml
# Experimental: Inhibition of virus infectivity in vitro. HEp-2 cell monolayers were grown in 96-well tissue culture plates (Falcon, Becton Dickson and Co.; Franklin Lakes, N.J.) with complete medium. The monolayers were pre-treated for 1 hour at 4° C. or 37° C. in triplicate wells with the indicated amounts of recombinant chemokine or anti-chemokine receptor antibody. After removal of chemokine or antibody, the monolayers were infected 1 hour at the same temperature with the denoted wild type or mutant RSV strain and then overlaid with 2% Sephadex (Amersham Biosciences; Piscataway, N.J.). Anti-viral activity was also assessed 1 hour after the cells were infected, or following simultaneous exposure of the monolayers to virus in a 1:1 mixture with the indicated doses of chemokines or CCL5 peptides. The inhibitory properties of the anti-chemokine receptor antibodies were tested alone or in combination at doses ranging from 5 to 100 μg/ml culture medium.
# as §1
# HEp-2 cells = test: Binding of biotinylated CCL5 peptides to HEp-2 cell monolayers (ELISA); set-up: species or system human; details: FIG. 3, viable HEp-2 cells at 4° C.
# Experimental: Interaction of CCL5 peptides with HEp-2 cells. An ELISA was used to assess the relative binding of synthetic peptides to HEp-2 cell monolayers. In brief, 96-well plates (Falcon) were seeded with 3×10^4 HEp-2 cells per well in 0.2 ml of complete medium. After overnight incubation (37° C., 5% CO2), the monolayers were cooled on ice for approximately 15 minutes. The biotinylated peptides were added to duplicate wells in ascending doses from 0.49 μg to 500 μg per ml DMEM (supplemented with 1% FBS, 2% penicillin/streptomycin, and 2 mM L-glutamine) and incubated at 4° C. for 1 hour. The monolayers were then fixed (20 minutes at RT) with 80% methanol (J T Baker; Phillipsburg, N.J.). […] Thereafter, the monolayers were incubated (1 hour at RT) with streptavidin-HRP (Zymed; San Francisco, Calif.). The wells were developed with TMB One-Step Substrate Solution (DAKO; Carpinteria, Calif.). Optical density was determined (450 nm, reference at 550 nm) with a Molecular Devices Versamax microplate reader (Sunnyvale, Calif.).
# [3] = all experiments at the 500 μg/dose
# [4] = Table 16 Exp. 1, 500 μg/dose, simultaneously admixed with RSV A2, intranasal, lungs four days later
# [5] = Table 10, 1 μg/ml, exposed 1 hour before infection, plaques after 3 days
# [6] = Table 10, 5 μg/ml, exposed 1 hour before infection, plaques after 3 days
# [7] = Table 10, 10 μg/ml, exposed 1 hour before infection, plaques after 3 days, relative to control wells (100%)
# [8] = Table 16 Exp. 1, 250 μg/dose, simultaneously admixed with RSV A2, four days
# [9] = Table 17, 500 μg, Simultaneous with RSV A2, four days
# [10] = Table 12, 10 μg/ml, 1 hour after removal of RSV A2 (POST)
# [11] = Table 12, 10 μg/ml, 1 hour prior to infection (PRE)
# [12] = Table 11, 1 μg/ml, exposed 1 hour before infection, plaques after 3 days
# [13] = Table 11, 5 μg/ml, exposed 1 hour before infection, plaques after 3 days
# [14] = Table 11, 10 μg/ml, exposed 1 hour before infection, plaques after 3 days
molecule,measurement,setting,value
"NC(=O)CN(CC(N)=O)S(=O)(=O)c1cccc(Nc2nc(Nc3cccc(S(=O)(=O)N(CC(N)=O)CC(N)=O)c3)nc(Nc3ccc(-c4ccc(Nc5nc(Nc6cccc(S(=O)(=O)N(CC(N)=O)CC(N)=O)c6)nc(Nc6cccc(S(=O)(=O)N(CC(N)=O)CC(N)=O)c6)n5)cc4S(=O)(=O)O)c(S(=O)(=O)O)c3)n2)c1 [RFI-641, reference compound]",inhibition of RSV infection in vivo (in words),RSV A2 [1],inhibitory against RSV infection
same,RSV/Gram Lung Tissue (log10),"RSV A2 [1]; Table 16 Exp. 1, 25 μg/dose, simultaneously admixed with RSV A2, four days",2.7 ± 0.2 log10
same,RSV/Gram Lung Tissue (log10),"RSV A2 [1]; Table 16 Exp. 2, 25 μg/dose, simultaneously admixed with RSV A2, four days",2.7 ± 0.3 log10
"AHIKEYFYTSGKCSN (listed as Homo sapiens) [Peptide 4, CCL5 amino acids 22-36]",average reduction in virus load,RSV A2 [1]; [3],1.2 log10
"CANPEKKWVREYINS (listed as Homo sapiens) [Peptide 8, CCL5 amino acids 50-64]",RSV/Gram Lung Tissue (log10),RSV A2 [1]; [4],3.6 ± 0.03 log10
same,average reduction in virus load,RSV A2 [1]; [3],1.0 log10
same,"reduced infectivity, fold",RSV A2 [1],approximately 10 fold
CCL11: recombinant human chemokine CCL11 (eotaxin),Percent Infectivity,RSV A2 [2]; [5],94.4 ± 4.8%
same,Percent Infectivity,RSV A2 [2]; [6],93.1 ± 12.7%
same,Percent Infectivity,RSV A2 [2]; [7],94.4 ± 4.8%
same,effect on RSV infectivity (in words),RSV A2 [2],did not impair RSV infectivity
"EKKWVREYINSLEMS (listed as Homo sapiens) [Peptide 9, CCL5 amino acids 54-68]",RSV/Gram Lung Tissue (log10),RSV A2 [1]; [8],3.7 ± 0.1 log10
same,average reduction in virus load,RSV A2 [1]; [3],1.4 log10
same,"reduced infectivity, fold",RSV A2 [1],approximately 10 fold
"PAVVFVTRKNRQVC (listed as Homo sapiens) [Peptide 6, CCL5 amino acids 37-50]",average reduction in virus load,RSV A2 [1]; [3],0.5 log10
"SPYSSDTTPCCFAYI (listed as Homo sapiens) [Peptide 1, CCL5 amino acids 1-15]",average reduction in virus load,"RSV A2 [1]; 300 μg or more, five experiments",2.4 log10
same,inhibition of RSV infection in vivo (in words),RSV A2 [1],most inhibitory in vivo
same,RSV/Gram Lung Tissue (log10),"RSV A2 [1]; Table 16 Exp. 1, 125 μg/dose, simultaneously admixed with RSV A2, four days",4.6 ± 0.2 log10
same,RSV/Gram Lung Tissue (log10),RSV A2 [1]; [8],4.3 ± 0.2 log10
same,RSV/Gram Lung Tissue (log10),RSV A2 [1]; [4],1.8 ± 0.1 log10
same,RSV/Gram Lung Tissue (log10),"RSV A2 [1]; Table 16 Exp. 2, 300 μg/dose, simultaneously admixed with RSV A2, four days",4.0 ± 0.1 log10
same,RSV/Gram Lung Tissue (log10),"RSV A2 [1]; Table 16 Exp. 2, 400 μg/dose, simultaneously admixed with RSV A2, four days",3.8 ± 0.1 log10
same,RSV/Gram Lung Tissue (log10),"RSV A2 [1]; Table 16 Exp. 2, 500 μg/dose, simultaneously admixed with RSV A2, four days",3.1 ± 0.1 log10
same,RSV/Gram Lung Tissue (log10),"RSV A2 [1]; Table 17, 500 μg, 1 hour after infection (Post), four days",5.3 ± 0.2 log10
same,RSV/Gram Lung Tissue (log10),"RSV A2 [1]; Table 17, 500 μg, 1 hour before infection (Pre), four days",3.5 ± 0.6 log10
same,RSV/Gram Lung Tissue (log10),RSV A2 [1]; [9],1.9 ± 0.2 log10
same,"virus load diminished, fold",RSV A2 [1]; administered 1 hour before infection,more than 50 fold
same,binding to the epithelial cell monolayer (in words),HEp-2 cells,readily bound to the epithelial cell monolayer
"TPCCFAYIARPLPRA (listed as Homo sapiens) [Peptide 2, CCL5 amino acids 8-22]",average reduction in virus load,RSV A2 [1]; [3],0.9 log10
"TRKNRQVCANPEKKW (listed as Homo sapiens) [Peptide 7, CCL5 amino acids 43-57]",RSV/Gram Lung Tissue (log10),RSV A2 [1]; [4],4.6 ± 0.1 log10
same,RSV/Gram Lung Tissue (log10),RSV A2 [1]; [9],3.8 ± 0.1 log10
same,average reduction in virus load,RSV A2 [1]; [3],1.1 log10
"CCL15: recombinant human chemokine CCL15 (MIP-1δ) (protein, UniProt Q16663 22-113, looked up) C-C motif chemokine 15: QFTNDAETELMMSKLPLENPVVLNSFHFAADCCTSYISQSIPCSLMKSYFETSSECSKPGVIFLTKKGRQVCAKPSGPGVQDCMKKLKPYSI",Percent Infectivity,RSV A2 [2]; [10],93 ± 4%
same,Percent Infectivity,RSV A2 [2]; [11],97 ± 8%
same,effect on RSV infectivity (in words),RSV A2 [2],did not impair RSV infectivity
"CCL8: recombinant human chemokine CCL8 (MCP-2) (protein, UniProt P80075 24-99, looked up) C-C motif chemokine 8: QPDSVSIPITCCFNVINRKIPIQRLESYTRITNIQCPKEAVIFKTKRGKEVCADPKERWVRDSMKHLDQIFQNLKP",Percent Infectivity,RSV A2 [2]; [5],88.9 ± 6.4%
same,Percent Infectivity,RSV A2 [2]; [6],100.0 ± 0.0%
same,Percent Infectivity,RSV A2 [2]; [7],94.4 ± 10.5%
same,effect on RSV infectivity (in words),RSV A2 [2],did not impair RSV infectivity
"CCL4: recombinant human chemokine CCL4 (MIP-1β) (protein, UniProt P13236 24-92, looked up) C-C motif chemokine 4: APMGSDPPTACCFSYTARKLPRNFVVDYYETSSLCSQPAVVFQTKRSKQVCADPSESWVQEYVYDLELN",Percent Infectivity,RSV A2 [2]; [12],104.0 ± 4.0%
same,Percent Infectivity,RSV A2 [2]; [13],99.0 ± 9.0%
same,Percent Infectivity,RSV A2 [2]; [14],98.0 ± 5.0%
same,effect on RSV infectivity (in words),RSV A2 [2],did not impair infectivity
"CCL3: recombinant human chemokine CCL3 (MIP-1α) (protein, UniProt P10147 24-92, looked up) C-C motif chemokine 3: SLAADTPTACCFSYTSRQIPQNFIADYFETSSQCSKPGVIFLTKRSRQVCADPSEEWVQKYVSDLELSA",Percent Infectivity,RSV A2 [2]; [5],95.8 ± 11.0%
same,Percent Infectivity,RSV A2 [2]; [6],97.2 ± 8.7%
same,Percent Infectivity,RSV A2 [2]; [7],86.1 ± 2.4%
same,Percent Infectivity,RSV A2 [2]; [12],103.0 ± 3.0%
same,Percent Infectivity,RSV A2 [2]; [13],98.0 ± 1.0%
same,Percent Infectivity,RSV A2 [2]; [14],91.0 ± 5.0%
same,Percent Infectivity,RSV A2 [2]; [10],104 ± 7%
same,Percent Infectivity,RSV A2 [2]; [11],91 ± 10%
same,effect on RSV infectivity (in words),RSV A2 [2],did not impair infectivity
